System: PBMC from HLA-DQ2+ coeliac subjects
Experiment: Interferon gamma ELISPOT, secalin 20mer first round library after rye challenge
Format: cell-based, human
Details: 20mers pre-treated with tTG; day 6 PBMC; 14 subjects
Experimental: (§1) Peptides were initially dissolved in aqueous acetonitrile (50%). Peptides in aqueous acetonitrile were transferred to sterile 96-well plates and diluted in sterile PBS with 1 mM calcium (250 mcg/ml) and then incubated with tTG (25 mcg/ml) (Sigma T5398) for 6 h 37° C. and then stored frozen (−20° C.) until use.
(§2) IFNγ ELISpot assays (Mabtech, Sweden) were performed in 96-well plates (MAIP S-45, Millipore) in which each well contained 25 mcl of peptide solution and 100 mcl of PBMC (2-8×10^5/well) in RPMI containing 10% heat inactivated human AB serum. After development and drying, IFNγ ELISpot plates were assessed using the MAIP automated ELISpot plate counter. Data was then analysed according to a novel algorithm (Expectation Maximization: EM) to define and quantify interferon-gamma responses to 9mer sequences contained within the peptide library (see FIG. 3 and below). 9mer peptides were then rationalised according to an algorithm that assumes redundancy in T-cell recognition, the “IterativeCluster” algorithm (see FIG. 4 and below), by allowing groups of amino acids with similar chemical properties at any one position in the 9mer, or for glutamate to replace glutamine at any position (assuming deamidation may have occurred).
Secalin and hordein 20mer first round peptide libraries were assessed 3 days after completing rye (bread, 100 g/d for 3 days) or barley (boiled, 100 g/d for 3 days) challenge (“day 6” PBMC interferon gamma ELISPOT responses). Although iterative analysis using 2nd and 3rd round peptide libraries to define epitopes has not yet been performed, the 20mers pre-treated with tTG found to induce “potent” responses shared substantial structural similarity to the bioactive peptides identified after wheat challenge. […] The dominant (>70% maximal response) 20mer after rye challenge was usually […] (SEQ ID NO: 1769) (8/14 subjects), or occasionally […] (SEQ ID NO: 1770) (4/14), […] (SEQ ID NO: 1771) (1/14), […] (SEQ ID NO: 1772) (1/14) and/or […] (SEQ ID NO: 1773) (1/14). Additional peptides noted for greater than 40% maximal response in at least 1 subject include: […]

| Sequence | subjects in whom 20mer was dominant (>70% maximal response) after rye challenge |
| --- | --- |
| PQQLFPLPQQPFPQPQQPFP (Description of Artificial Sequence: Synthetic gluten peptide) [rye secalin 20mer] | 8/14 |
| PQTQQPQQPFPQPQQPQQLF (Description of Artificial Sequence: Synthetic gluten peptide) [rye secalin 20mer] | 1/14 |
| QEQREGVQILLPQSHQQLVG (Description of Artificial Sequence: Synthetic gluten peptide) [rye secalin 20mer] | 1/14 |

Same assay, conditions: after rye challenge; 14 subjects

| Sequence | number of subjects with > 70% maximal response | subjects with greater than 40% maximal response |
| --- | --- | --- |
| FPLQPQQPFPQQPEQIISQQ (Description of Artificial Sequence: Synthetic gluten peptide) [rye secalin 20mer] | 1 | 5/14 |
| FPQQPQQPFPQPQQQLPLQP (Description of Artificial Sequence: Synthetic gluten peptide) [rye secalin 20mer] | 2 | 3/14 |
| NMQVGPSGQVEWPQQQPLPQ (Description of Artificial Sequence: Synthetic gluten peptide) [rye secalin 20mer] | 1 | 2/14 |
| PQQPFPQQPEQIIPQQPQQP (Description of Artificial Sequence: Synthetic gluten peptide) [rye secalin 20mer] | 3 | 5/14 |
| PQQPQRPFAQQPEQIISQQP (Description of Artificial Sequence: Synthetic gluten peptide) [rye secalin 20mer] | 1 | 3/14 |

System: PBMC from HLA-DQ2+ coeliac subjects
Experiment: Interferon gamma ELISPOT, hordein 20mer first round library after barley challenge
Format: cell-based, human
Design: key to individual peptide showing maximal response in a single individual (asterisk): *: an asterisk indicates the eight individual peptides showing maximal response in a single individual
Details: not given
Experimental: as §1, §2
Secalin and hordein 20mer first round peptide libraries were assessed 3 days after completing rye (bread, 100 g/d for 3 days) or barley (boiled, 100 g/d for 3 days) challenge (“day 6” PBMC interferon gamma ELISPOT responses). Although iterative analysis using 2nd and 3rd round peptide libraries to define epitopes has not yet been performed, the 20mers pre-treated with tTG found to induce “potent” responses shared substantial structural similarity to the bioactive peptides identified after wheat challenge. […] The dominant (>70% maximal response) 20mer after rye challenge was usually […] (SEQ ID NO: 1769) (8/14 subjects), or occasionally […] (SEQ ID NO: 1770) (4/14), […] (SEQ ID NO: 1771) (1/14), […] (SEQ ID NO: 1772) (1/14) and/or […] (SEQ ID NO: 1773) (1/14). Additional peptides noted for greater than 40% maximal response in at least 1 subject include:
Typically, the dominant peptides after barley challenge included one of six peptide motifs, or were one of eight other individual 20mers “dominant” in only one of 17 subjects after barley challenge. The six motifs identified:
The barley hordein peptides showing at least 40% maximal peptide response in at least one subject include the following, wherein an asterisk indicates the eight individual peptides showing maximal response in a single individual: […]

| Sequence | individual peptide showing maximal response in a single individual (asterisk) |
| --- | --- |
| PYLPEELSPQYQIPTPLQPQ (Description of Artificial Sequence: Synthetic gluten peptide) [barley hordein 20mer] | * |
| QGSEQIIPQQPQQPFPLQPH (Description of Artificial Sequence: Synthetic gluten peptide) [barley hordein 20mer] | * |
| QPQQPFPQPQQPIPYQPQQP (Description of Artificial Sequence: Synthetic gluten peptide) [barley hordein 20mer] | * |
| VSPHPGQQTTVSPHQGQQTT (Description of Artificial Sequence: Synthetic gluten peptide) [barley hordein 20mer] | * |
| WQPQQPFPQPQQPFPLQPQQ (Description of Artificial Sequence: Synthetic gluten peptide) [barley hordein 20mer] | * |

Same assay, conditions: 17 subjects

| Sequence | number of subjects with > 70% maximal response | subjects with at least 40% maximal peptide response |
| --- | --- | --- |
| PQQPVPQQPQPYPQQPQPFP (Description of Artificial Sequence: Synthetic gluten peptide) [barley hordein 20mer] | 1 | 5/17 |
| PVLSQQQPCTQDQTPLLQEQ (Description of Artificial Sequence: Synthetic gluten peptide) [barley hordein 20mer] | 1 | 1/17 |
| PWQPQQPFPQPQEPIPQQPQ (Description of Artificial Sequence: Synthetic gluten peptide) [barley hordein 20mer] | 1 | 1/17 |
| PYLPEELSPQYQIPTPLQPQ (Description of Artificial Sequence: Synthetic gluten peptide) [barley hordein 20mer] | 1 | 1/17 |
| QGSEQIIPQQPQQPFPLQPH (Description of Artificial Sequence: Synthetic gluten peptide) [barley hordein 20mer] | 3 | 7/17 |
| QIPYVHPSILQQLNPCKVFL (Description of Artificial Sequence: Synthetic gluten peptide) [barley hordein 20mer] | 1 | 1/17 |
| QKYPEQPQQPFPWQQPTIQL (Description of Artificial Sequence: Synthetic gluten peptide) [barley hordein 20mer] | 1 | 1/17 |
| QPFPQPQQPFPWQPQQPFPQ (Description of Artificial Sequence: Synthetic gluten peptide) [barley hordein 20mer] | 2 | 10/17 |
| QPFPTPQQFFPYLPQQTFPP (Description of Artificial Sequence: Synthetic gluten peptide) [barley hordein 20mer] | 1 | 4/17 |
| QPQPYPQQPQPYPQQPFQPQ (Description of Artificial Sequence: Synthetic gluten peptide) [barley hordein 20mer] | 2 | 7/17 |
| QPQQPFPQPQQPIPYQPQQP (Description of Artificial Sequence: Synthetic gluten peptide) [barley hordein 20mer] | 1 | 4/17 |
| QPQQPQPFPQQPVPQQPQPY (Description of Artificial Sequence: Synthetic gluten peptide) [barley hordein 20mer] | 2 | 5/17 |
| QQPFPLQPQQPFPQPQPFPQ (Description of Artificial Sequence: Synthetic gluten peptide) [barley hordein 20mer] | 0 | 1/17 |
| QQPFPQPQQPIPYQPQQPFN (Description of Artificial Sequence: Synthetic gluten peptide) [barley hordein 20mer] | 1 | 5/17 |
| QQPQPFSQQPIPQQPQPYPQ (Description of Artificial Sequence: Synthetic gluten peptide) [barley hordein 20mer] | 8 | 9/17 |
| QQQPFPQQPIPQQPQPYPQQ (Description of Artificial Sequence: Synthetic gluten peptide) [barley hordein 20mer] | 2 | 8/17 |
| QSQQQFPQPQQPFPQQPQQP (Description of Artificial Sequence: Synthetic gluten peptide) [barley hordein 20mer] | 0 | 1/17 |
| RQLPKYIIPQQPQQPFLLQP (Description of Artificial Sequence: Synthetic gluten peptide) [barley hordein 20mer] | 1 | 1/17 |
| SPLQPQQPFPQGSEQIIPQQ (Description of Artificial Sequence: Synthetic gluten peptide) [barley hordein 20mer] | 0 | 1/17 |
| VSPHPGQQTTVSPHQGQQTT (Description of Artificial Sequence: Synthetic gluten peptide) [barley hordein 20mer] | 1 | 1/17 |
| WQPQQPFPQPQQPFPLQPQQ (Description of Artificial Sequence: Synthetic gluten peptide) [barley hordein 20mer] | 5 | 9/17 |
| YPQQPQPFPQQPIPQQPQPY (Description of Artificial Sequence: Synthetic gluten peptide) [barley hordein 20mer] | 2 | 6/17 |
